This is an account of results in US12624067B2, “Cyclic peptide, cell scaffold material, cell separating material, and medium” (FUJIFILM Corporation, priority 2019, dated 2026).

Numbered stars: 1 amine (or outer) side, 2 acyl side, 3 side chain; on linkers, the order of the positions; unused ones are H or OH. Bridge positions count the residues as written; N and C are the ends. Square brackets hold non-standard residues; d marks the D form. Peptide text beside a SMILES is read from it. hCys = N[C@@H](CCS)C(=O)O; Orn = NCCC[C@H](N)C(=O)O; Dab = NCC[C@H](N)C(=O)O; Dap = NC[C@H](N)C(=O)O; X1 = O=C(C[*:1])[*:2]; X2 = O=C(C[*:2])[*:1]

Data set [1] can be described thus: Evaluation of molecule stability (alkali treatment, LC/MS residual rate). The format is physicochemical. Conditions: 500 μM peptide plus equivalent of 1 M sodium hydroxide, 15° C., 20 minutes, LC/MS peak area. The protocol: The molecule stability of the cyclic peptide was evaluated by analyzing the alkali-treated cyclic peptide aqueous solution by liquid chromatography mass spectroscopy (LC/MS).
The alkali treatment was carried out by the following method. A 500 μM cyclic peptide aqueous solution was prepared, an equivalent of 1 M sodium hydroxide aqueous solution was added to this aqueous solution, and the resultant mixture was incubated at 15° C. for 20 minutes to obtain an alkali-treated cyclic peptide aqueous solution. The cyclic peptide residual rate was calculated by setting the total area of all peaks of the cyclic peptide before alkali treatment in LC/MS to 100% and determining the proportion of the total area of all peaks in LC/MS of the alkali-treated cyclic peptide aqueous solution, and the molecule stability was evaluated according to the following evaluation standards. It is preferable that the evaluation result satisfies the evaluation standard A, B, or C.
The conditions of the LC/MS used for the evaluation of molecule stability were set as follows. • LC apparatus: Prominence series (pump, column oven, autosampler, detector) (manufactured by Shimadzu Corporation) • MS detector: LC/MS2010EV (manufactured by Shimadzu Corporation) • Column: Cadenza CD-C18, inner diameter 2.0 mm×length 250 mm, particle size: 3 μm (manufactured by Imtakt Corporation) • Eluent A: a solution (pH 3) containing 10 mM ammonium formate as a solute, where the solvent is 100% water. • Eluent B: a solution (pH 3) containing 10 mM ammonium formate as a solute, where the solvent is acetonitrile/water=90/10. • Flow rate: 0.2 mL/min • Injection volume: 4 μL • Gradient: 0% to 30%: Eluent B (0 to 30 minutes), 100%: Eluent B (30 to 40 minutes), 0%: Eluent B (40 to 60 minutes)(B indicates the eluent B) • Column temperature: 45° C. • Ionization method: electrospray ionization (ESI) positive, ESI negative

The target of another data set is human integrin αvβ5 (Homo sapiens, UniProt P06756+P18084). Nature of the data set: Evaluation of integrin binding property (surface plasmon resonance, Biacore 3000, immobilized cyclic peptide). Conditions: peptide immobilized on CM5 sensor chip; human integrin αvβ5 30-1,000 nM, 25° C., HEPES buffer with 5 mM magnesium chloride; read-out: Integrin binding property (dissociation constant). The protocol:
A commercially available CM5 sensor chip (a carboxymethyl dextran introduction type, manufactured by GE Healthcare) was set in a surface plasmon resonance apparatus (product name: Biacore 3000, manufactured by GE Healthcare), the sensor was stabilized at a flow rate of 10 μL/min of a 4-(2-hydroxyethyl)-1-piperazineethanesulfonic acid (HEPES) buffer solution (20 mM HEPES-HCl, 150 mM NaCl, pH 7.4) for surface plasmon resonance (SPR), and 70 μL of a mixed aqueous solution of 0.2 M 1-(3-dimethylaminopropyl)-3-ethylcarbodiimide (EDC) and 0.04 M N-hydroxysuccinimide (NHS) was added thereto. Then, 300 μL of the sample solution of each of the above cyclic peptides diluted to 0.2 g/L with the HEPES buffer solution was supplied to the sensor chip, blocking treatment was subsequently carried out with an ethanolamine solution, and washing was carried out with a sodium hydroxide aqueous solution, whereby immobilization was carried out. However, only for the cyclic peptide 22, in which the number of lysine residues having an amino group as the immobilizing functional group was 1, the sample solution to be supplied to the sensor chip was set to 5,000 μL instead of 300 μL. Similarly; 70 μL of the mixed aqueous solution of 0.2 M EDC and 0.04 M NHS was added to another flow channel of the same sensor chip without immobilizing the sample, and then blocking treatment and washing treatment were carried out. Hereinafter, the obtained immobilization-treated sensor chip is referred to as an “immobilization-treated sensor chip A”.
After adding human integrin αvβ5 for 10 minutes at 25° C., which was diluted to 30 nM using a HEPES buffer solution to which magnesium chloride was added to 5 mM, in each flow channel of the immobilization-treated sensor chip A prepared in (1) above, the same HEPES buffer solution (containing 5 mM magnesium chloride) was allowed to flow as a running buffer for 30 minutes, and measurement was carried out with Biacore 3000.
Then, a regeneration treatment of removing human integrin αvβ5 was carried out by allowing a 0.5 M EDTA aqueous solution to flow through each flow channel for 10 minutes. Further, the above-described measurement process consisting of adding integrin for 10 minutes, allowing a running buffer to flow for 30 minutes, carrying out measurement with Biacore 3000, and carrying out regeneration treatment with 0.5 M EDTA aqueous solution was carried out in the same manner for 100 nM human integrin αvβ5, 300 nM human integrin αvβ5, and 1,000 nM human integrin αvβ5. Dissociation constant between the cyclic peptide and human integrin αvβ5 was calculated from the difference between the value measured by Biacore 3000 in the flow channel immobilized with the cyclic peptide and the value measured by Biacore 3000 in the flow channel unimmobilized with the cyclic peptide, in a case where each concentration of human integrin αvβ5 was allowed to flow; and the integrin binding property was evaluated according to the following evaluation standards. It is preferable that the evaluation result satisfies the evaluation standard A, B, or C.
A general note: Surface plasmon resonance follows binding to a sensor surface in real time, without labels.

Sequence of human integrin αvβ5 (P06756 31-889 limits assumed): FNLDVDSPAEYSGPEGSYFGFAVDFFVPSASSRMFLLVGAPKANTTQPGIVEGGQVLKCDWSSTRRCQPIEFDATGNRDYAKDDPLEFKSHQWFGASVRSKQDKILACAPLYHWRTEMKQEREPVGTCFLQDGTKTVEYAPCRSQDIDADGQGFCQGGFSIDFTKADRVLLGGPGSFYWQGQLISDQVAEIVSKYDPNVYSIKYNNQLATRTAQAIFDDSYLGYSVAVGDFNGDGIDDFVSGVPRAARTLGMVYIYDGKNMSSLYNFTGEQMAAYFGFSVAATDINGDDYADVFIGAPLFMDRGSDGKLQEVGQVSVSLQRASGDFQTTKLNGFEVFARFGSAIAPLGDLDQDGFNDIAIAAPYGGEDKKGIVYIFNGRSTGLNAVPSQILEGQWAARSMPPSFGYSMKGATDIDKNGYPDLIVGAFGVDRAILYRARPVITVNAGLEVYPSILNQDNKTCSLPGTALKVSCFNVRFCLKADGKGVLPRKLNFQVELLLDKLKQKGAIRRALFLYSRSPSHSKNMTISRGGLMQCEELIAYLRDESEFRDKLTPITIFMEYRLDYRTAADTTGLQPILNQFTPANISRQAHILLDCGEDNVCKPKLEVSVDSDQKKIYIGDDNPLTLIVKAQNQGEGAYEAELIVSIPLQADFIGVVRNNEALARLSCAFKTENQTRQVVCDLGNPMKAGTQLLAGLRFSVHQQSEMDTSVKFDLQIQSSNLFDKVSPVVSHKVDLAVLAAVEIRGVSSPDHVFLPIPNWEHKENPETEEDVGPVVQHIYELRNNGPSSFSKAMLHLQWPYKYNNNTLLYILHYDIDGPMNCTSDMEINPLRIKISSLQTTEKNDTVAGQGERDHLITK
Sequence of human integrin αvβ5 (P06756 891-1048 partner limits assumed): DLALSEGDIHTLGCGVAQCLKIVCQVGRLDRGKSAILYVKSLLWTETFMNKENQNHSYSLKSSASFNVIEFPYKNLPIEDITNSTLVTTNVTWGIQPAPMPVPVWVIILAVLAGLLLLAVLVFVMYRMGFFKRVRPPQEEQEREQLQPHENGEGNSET
Sequence of human integrin αvβ5 (P18084 24-799): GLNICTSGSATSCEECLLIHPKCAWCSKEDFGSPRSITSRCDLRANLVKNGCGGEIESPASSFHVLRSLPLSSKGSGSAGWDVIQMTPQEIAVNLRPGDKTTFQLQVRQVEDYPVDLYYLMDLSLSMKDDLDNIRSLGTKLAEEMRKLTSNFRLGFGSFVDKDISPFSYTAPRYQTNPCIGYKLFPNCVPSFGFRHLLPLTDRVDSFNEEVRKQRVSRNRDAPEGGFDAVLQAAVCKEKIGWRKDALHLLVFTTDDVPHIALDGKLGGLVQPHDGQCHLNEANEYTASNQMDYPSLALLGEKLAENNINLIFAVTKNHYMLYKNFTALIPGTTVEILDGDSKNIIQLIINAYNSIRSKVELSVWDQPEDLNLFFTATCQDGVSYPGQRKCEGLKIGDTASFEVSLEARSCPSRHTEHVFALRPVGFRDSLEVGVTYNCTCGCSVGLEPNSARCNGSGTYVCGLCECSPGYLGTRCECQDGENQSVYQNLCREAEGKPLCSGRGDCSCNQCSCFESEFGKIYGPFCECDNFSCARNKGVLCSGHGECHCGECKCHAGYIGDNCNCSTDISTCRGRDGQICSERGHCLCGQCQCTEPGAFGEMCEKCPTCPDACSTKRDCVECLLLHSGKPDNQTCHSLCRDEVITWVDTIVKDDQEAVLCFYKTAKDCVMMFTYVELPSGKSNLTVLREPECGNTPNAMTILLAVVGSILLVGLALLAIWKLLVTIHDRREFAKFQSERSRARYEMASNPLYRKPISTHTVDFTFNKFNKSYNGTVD

`CC[C@H](C)[C@@H]1NC(=O)CSC[C@@H](C(=O)N[C@@H](CCCCN)C(=O)N[C@@H](CCCCN)C(=O)N[C@@H](CCCCN)C(=O)O)NC(=O)[C@H](Cc2ccccc2)NC(=O)[C@@H]2CCCNC(=O)CSC[C@H](NC1=O)C(=O)N[C@@H](CCCNC(=N)N)C(=O)NCC(=O)N[C@@H](CC(=O)O)C(=O)N2` [Cyclic peptide 10] ({CH2CO}-ICRGD[Orn]FCKKK-OH; linker 2-6 via X1; thioether N-8): in data set [1], the “Molecule stability (cyclic peptide residual rate)” value was “B (The residual rate of the cyclic peptide is 50% or more and less than 70%.)”. In addition, the Kd at human integrin αvβ5 was 0.05 to 0.1 µM.

For `CC[C@H](C)[C@@H]1NC(=O)CSCC[C@@H](C(=O)N[C@@H](CCCCN)C(=O)N[C@@H](CCCCN)C(=O)N[C@@H](CCCCN)C(=O)O)NC(=O)[C@H](Cc2ccccc2)NC(=O)[C@@H]2CCCCNC(=O)CSCC[C@H](NC1=O)C(=O)N[C@@H](CCCNC(=N)N)C(=O)NCC(=O)N[C@@H](CC(=O)O)C(=O)N2` [Cyclic peptide 11] ({CH2CO}-I[hCys]RGDKF[hCys]KKK-OH; linker 2-6 via X1; thioether N-8), the “Molecule stability (cyclic peptide residual rate)” value in data set [1] is “A (The residual rate of the cyclic peptide is 70% or more.)”. The Kd on human integrin αvβ5 is under 0.05 µM.

For the compound `CC[C@H](C)[C@@H]1NC(=O)CSC[C@@H](C(=O)N[C@@H](CCCCN)C(=O)N[C@@H](CCCCN)C(=O)N[C@@H](CCCCN)C(=O)O)NC(=O)[C@H](Cc2ccccc2)NC(=O)[C@@H]2CCCCNC(=O)CSC[C@H](NC1=O)C(=O)N[C@@H](CCCNC(=N)N)C(=O)NCC(=O)N[C@@H](CC(=O)O)C(=O)N2` [Cyclic peptide 12] ({CH2CO}-ICRGDKFCKKK-OH; linker 2-6 via X1; thioether N-8), the “Molecule stability (cyclic peptide residual rate)” value in data set [1] is “B (The residual rate of the cyclic peptide is 50% or more and less than 70%.)”. Further, on human integrin αvβ5, the Kd was under 0.05 µM.

Turning to `CC[C@H](C)[C@@H]1NC(=O)CSC[C@@H](C(=O)N[C@@H](CCCCN)C(=O)N[C@@H](CCCCN)C(=O)N[C@@H](CCCCN)C(=O)O)NC(=O)[C@H](Cc2ccccc2)NC(=O)[C@@H]2CCSCC(=O)NC[C@H](NC1=O)C(=O)N[C@@H](CCCNC(=N)N)C(=O)NCC(=O)N[C@@H](CC(=O)O)C(=O)N2` [Cyclic peptide 13] ({CH2CO}-I[Dap]RGD[hCys]FCKKK-OH; linker 2-6 via X2; thioether N-8), the “Molecule stability (cyclic peptide residual rate)” value in data set [1] is on record as “A (The residual rate of the cyclic peptide is 70% or more.)”. Besides, the Kd at human integrin αvβ5 lay within 0.05 to 0.1 µM.

Take `CC[C@H](C)[C@@H]1NC(=O)CSCC[C@@H](C(=O)N[C@@H](CCCCN)C(=O)N[C@@H](CCCCN)C(=O)N[C@@H](CCCCN)C(=O)O)NC(=O)[C@H](Cc2ccccc2)NC(=O)[C@@H]2CSCC(=O)NC[C@H](NC1=O)C(=O)N[C@@H](CCCNC(=N)N)C(=O)NCC(=O)N[C@@H](CC(=O)O)C(=O)N2` [Cyclic peptide 14] ({CH2CO}-I[Dap]RGDCF[hCys]KKK-OH; linker 2-6 via X2; thioether N-8): the “Molecule stability (cyclic peptide residual rate)” value in data set [1] is “A (The residual rate of the cyclic peptide is 70% or more.)”. Moreover, on human integrin αvβ5, the Kd is under 0.05 µM.

Turning to `CC[C@H](C)[C@@H]1NC(=O)CSC[C@@H](C(=O)N[C@@H](CCCCN)C(=O)N[C@@H](CCCCN)C(=O)N[C@@H](CCCCN)C(=O)O)NC(=O)[C@H](Cc2ccccc2)NC(=O)[C@@H]2CCSCC(=O)NCCC[C@H](NC1=O)C(=O)N[C@@H](CCCNC(=N)N)C(=O)NCC(=O)N[C@@H](CC(=O)O)C(=O)N2` [Cyclic peptide 15] ({CH2CO}-I[Orn]RGD[hCys]FCKKK-OH; linker 2-6 via X2; thioether N-8), in data set [1], the “Molecule stability (cyclic peptide residual rate)” value was “A (The residual rate of the cyclic peptide is 70% or more.)”. The Kd on human integrin αvβ5 was under 0.05 µM.

As to `CC[C@H](C)[C@@H]1NC(=O)CSCC[C@@H](C(=O)N[C@@H](CCCCN)C(=O)N[C@@H](CCCCN)C(=O)N[C@@H](CCCCN)C(=O)O)NC(=O)[C@H](Cc2ccccc2)NC(=O)[C@@H]2CSCC(=O)NCCC[C@H](NC1=O)C(=O)N[C@@H](CCCNC(=N)N)C(=O)NCC(=O)N[C@@H](CC(=O)O)C(=O)N2` [Cyclic peptide 16] ({CH2CO}-I[Orn]RGDCF[hCys]KKK-OH; linker 2-6 via X2; thioether N-8), the “Molecule stability (cyclic peptide residual rate)” value in data set [1] was “A (The residual rate of the cyclic peptide is 70% or more.)”. For the same compound, the Kd on human integrin αvβ5 is under 0.05 µM.

Consider `CC[C@H](C)[C@@H]1NC(=O)CSC[C@@H](C(=O)N[C@@H](CCCCN)C(=O)N[C@@H](CCCCN)C(=O)N[C@@H](CCCCN)C(=O)O)NC(=O)[C@H](Cc2ccccc2)NC(=O)[C@@H]2CCCCNC(=O)CSCC[C@H](NC1=O)C(=O)N[C@@H](CCCNC(=N)N)C(=O)NCC(=O)N[C@@H](CC(=O)O)C(=O)N2` [Cyclic peptide 17] ({CH2CO}-I[hCys]RGDKFCKKK-OH; linker 2-6 via X1; thioether N-8), for which, in data set [1], the “Molecule stability (cyclic peptide residual rate)” value is “A (The residual rate of the cyclic peptide is 70% or more.)”. At human integrin αvβ5, the Kd was under 0.05 µM.

With `CC[C@H](C)[C@@H]1NC(=O)CSCC[C@@H](C(=O)N[C@@H](CCCCN)C(=O)N[C@@H](CCCCN)C(=O)N[C@@H](CCCCN)C(=O)O)NC(=O)[C@H](Cc2ccccc2)NC(=O)[C@@H]2CCCCNC(=O)CSC[C@H](NC1=O)C(=O)N[C@@H](CCCNC(=N)N)C(=O)NCC(=O)N[C@@H](CC(=O)O)C(=O)N2` [Cyclic peptide 18] ({CH2CO}-ICRGDKF[hCys]KKK-OH; linker 2-6 via X1; thioether N-8), in data set [1], the “Molecule stability (cyclic peptide residual rate)” value is recorded as “A (The residual rate of the cyclic peptide is 70% or more.)”. Further, at human integrin αvβ5, the Kd is under 0.05 µM.

With `CC[C@H](C)[C@@H]1NC(=O)CSC[C@@H](C(=O)N[C@@H](CCCCN)C(=O)N[C@@H](CCCCN)C(=O)N[C@@H](CCCCN)C(=O)O)NC(=O)[C@H](Cc2ccccc2)NC(=O)[C@@H]2CCNC(=O)CSCC[C@H](NC1=O)C(=O)N[C@@H](CCCNC(=N)N)C(=O)NCC(=O)N[C@@H](CC(=O)O)C(=O)N2` [Cyclic peptide 19] ({CH2CO}-I[hCys]RGD[Dab]FCKKK-OH; linker 2-6 via X1; thioether N-8), the “Molecule stability (cyclic peptide residual rate)” value in data set [1] was “A (The residual rate of the cyclic peptide is 70% or more.)”. The Kd on human integrin αvβ5 lay within 0.05 to 0.1 µM.

For `CC[C@H](C)[C@@H]1NC(=O)CSCC[C@@H](C(=O)N[C@@H](CCCCN)C(=O)N[C@@H](CCCCN)C(=O)N[C@@H](CCCCN)C(=O)O)NC(=O)[C@H](Cc2ccccc2)NC(=O)[C@@H]2CCNC(=O)CSC[C@H](NC1=O)C(=O)N[C@@H](CCCNC(=N)N)C(=O)NCC(=O)N[C@@H](CC(=O)O)C(=O)N2` [Cyclic peptide 20] ({CH2CO}-ICRGD[Dab]F[hCys]KKK-OH; linker 2-6 via X1; thioether N-8), the “Molecule stability (cyclic peptide residual rate)” value in data set [1] is “A (The residual rate of the cyclic peptide is 70% or more.)”. Besides, the Kd on human integrin αvβ5 was under 0.05 µM.
